# Entries after “also recorded” stand apart in the source; their conditions may differ. Where two headings read alike, the source gives them in different places.
# Legend:
# Assay type in all cases: cell-based
# [1] = test system: Chlamydia trachomatis serovar L2; test: Minimum bactericidal concentration (titration of infectious ability of bacteria from treated infected cells)
# Experimental: (§1) It was first sought to verify whether other molecules of the β-lactam family could induce in vitro the same abnormal and noninfectious forms of Chlamydia trachomatis as that produced in the presence of penicillin G. Titration experiments were performed on the infectious ability of bacteria from infected cells treated with different β-lactams. Cytotoxicity and minimum bactericidal concentration (MBC) were determined for each of these molecules. It was also verified whether all of these β-lactams have bactericidal action on persistent forms of Chlamydia trachomatis produced in vitro under the effect of IFN-γ.
# [2] = test system: Chlamydia trachomatis serovar L2; test: Infectivity of progeny bacteria (IFU titration, reactivation test)
# Experimental: HeLa cells were infected with the Chlamydia trachomatis L2 serovar at 1 inclusion forming unit (IFU). At 3 hpi, 3 equal batches were distinguished and penicillin G was added at a concentration of 100 U/ml to the “penicillin G” batch (black bar) and “reversion” (gray bar) but not in the control batch (white bar). At 24 hpi, penicillin G was removed from the culture medium in the reversion group. At 48 hpi or 100 hpi, the supernatants and the cells were combined and stored at -80° C. Fresh cultures of HeLa cells were then incubated for 1 hour with cell extracts (left) or supernatants (right), incubated with cycloheximide and fixed 24 hours later. The nuclei and the inclusions were stained and counted to calculate the number of IFU/ml. […] It is also a first indication of the lethality of Chlamydia. HeLa cells were infected with Chlamydia trachomatis serovar L2 at 1 IFU. At 3 hpi, penicillin G was added at a concentration of 1, 10 or 100 U/ml in the penicillin G (-) and reversion (+) samples. At 24 hpi, penicillin G was removed from the culture medium in the reversion group (+). At 48 hpi or 100 hpi, the supernatants and the cells were collected and stored at -80° C. HeLa cells grown on slides were incubated for 1 hour with cell extracts (left) or with supernatants (right), treated with cycloheximide and fixed 24 hours later. The nuclei and inclusions were stained and counted to determine the number of IFU/ml. […] The infections were carried out at 37° C. for 90 minutes with centrifugation, followed by a washing of extracellular bacteria. At 3 hpi, after the washings, the culture medium was replaced with medium containing either 25 μg/ml gentamicin or 1-100 IU/ml penicillin G. At regular intervals after treatment with penicillin G, the cultures were either fixed in 4% neutral buffered PFA for 30 minutes to be prepared for confocal microscopy, or collected to determine the infectivity of the progeny bacteria, according to the previously described method (Verbeke, P. et al. PLoS Pathog 2:e45, 2006). HeLa cells cultured in monolayers on slides were infected with Chlamydia trachomatis serovar L2 and treated with penicillin G, as described above. Twenty hours after infection, the culture was washed and the medium replaced with medium free of penicillin G. Between 48 and 100 hpi, the cells and the culture medium were collected at various intervals and a titration test was performed according to the method of the prior art (Scidmore, M. A. Curr Protoc Microbiol Chapter 11: Unit 11A 11, 2005). To determine whether treatment with penicillin G could affect bacterial persistence, HeLa cells infected with L2 and treated with IFN-γ and penicillin G (500 IU/ml) from 48 hpi (i.e. 24 hours after treatment with IFN-γ) to 72 hpi (i.e. 48 hours after treatment with IFN-γ). The slides were then fixed and observed using an epifluorescence microscope (Leica D M, Leica, Mannheim, Germany) equipped with two sets of detection filters (Hoechst 360/40 nmBP-425 nmLP; FITC 480/40 nmBP-527/30 nmBP) and connected to a CCD camera CCC.
# [3] = test system: Cells Infected with Chlamydia trachomatis serovar L2; test: Cytotoxicity of β-lactams; details: given as 0
# Experimental: as §1
# [4] = test system: Chlamydia trachomatis serovar L2; test: Development and morphology of inclusions in infected HeLa cells (microscopy)
# Experimental: HeLa cells were infected with Chlamydia trachomatis serovar L2 and treated with IFN-γ (100 ng/ml), penicillin G (100 U/ml) or gentamicin ([…]). At various times after infection (hours post-infection (hpi)), the cells were fixed and stained with an antibody against Chlamydia sp. (green in the original figure) and with Hoechst (blue in the original figure). The infected HeLa cells treated with penicillin G have abnormal bodies that grow and that are phenotypically quite different from those formed during treatment with IFN-γ. The bodies formed with penicillin G are appreciably different from “classic” persistent bodies. To examine the effects of penicillin G on cell infection with Chlamydia, the host cells were cultivated up to 70% confluence without antibiotics, and then were infected with C. trachomatis strain […]. muridarum at 1 IFU. The infections were carried out at 37° C. for 90 minutes with centrifugation, followed by a washing of extracellular bacteria. At 3 hpi, after the washings, the culture medium was replaced with medium containing either 25 μg/ml gentamicin or 1-100 IU/ml penicillin G. At regular intervals after treatment with penicillin G, the cultures were either fixed in 4% neutral buffered PFA for 30 minutes to be prepared for confocal microscopy, or collected to determine the infectivity of the progeny bacteria, according to the previously described method (Verbeke, P. et al. PLoS Pathog 2:e45, 2006). HeLa cells cultured in monolayers on slides were infected with serovar L2 with an IFU of 1, as described above (Verbeke, P. et al. PLoS Pathog 2:e45, 2006). Three hours after the infection, the medium was removed and replaced with culture medium containing 500 IU/ml (final concentration) recombinant human IFN-γ.
# [5] = test system: Chlamydia trachomatis inclusions; test: Fusion of lysosomes with inclusions (cathepsin D, LysoTracker, confocal microscopy)
compound,measurement,setting,value
"CC1(C)S[C@@H]2[C@H](NC(=O)Cc3ccccc3)C(=O)N2[C@H]1C(=O)O [Penicillin G, benzylpenicillin]",MBC,"[1]; minimum bactericidal concentration, read-out: MBC",0.3 µM
same,MBC,"[1]; second line of the MBC cell, read-out: MBC, bound in parentheses below the value",> 0.1 µM
same,infectivity at low penicillin G concentrations,"[2]; 1, 10 or 100 U/ml, permanent or transitory treatment",same irreversible loss of infectivity; also recorded: no reinfection was obtained
same,infectivity after removing penicillin G at 24 hpi (reversion),"[2]; 100 U/ml from 3 hpi, removed at 24 hpi",no improvement in infectivity
same,infectious ability (IFU/ml) with or without reversion phase,"[2]; 100 U/ml, 48 hpi or 100 hpi, cell extracts and supernatants, FIG. 2",no infectious ability could be shown
same,infectivity of bacteria collected at 48 hpi compared with gentamicin-treated cells,"[2]; continuous 100 IU/ml, 48 hpi",several hundred times less infectious
same,infectivity of bacteria released at 100 hpi,"[2]; continuous 100 IU/ml, 100 hpi",completely noninfectious
same,Cytotox.,[3],0
same,growth of the bacterial inclusions,"[4]; infected HeLa cells, videomicroscopy / culture for 4 days",grow as quickly as those of cells treated with gentamicin
same,time at which infected treated cells were lysed,[4]; penicillin G,120 hours post-infection (hpi)
same,appearance of abnormally dilated structures depending on time of addition,[4]; penicillin G added at various times after infection,only when penicillin G is added in the first phase of the bacterial cycle (before 24 hpi)
same,localization of cathepsin D in inclusions,"[5]; HeLa, 24 hpi",the majority of the abnormal bacterial forms contained cathepsin D
same,cathepsin D in abnormal inclusions of other cell/serovar pairs,[5]; RL95-2 cells/serovar L2 or HeLa cells/serovar D,also contain cathepsin D
same,LysoTracker-stained compartments and inclusions,[5]; confocal videomicroscopy,compartments stained with LysoTracker probes enter abnormal inclusions
